Results reported in paper PMC3805573, “Methylglyoxal Evokes Pain by Stimulating TRPA1” (PLoS ONE, 2013).

What was measured:
[1] = tested on: MDCK cells; experiment: [Ca2+]i-measurements in MDCK cells; assay type: cell-based, Canine
Procedure: MDCK cells were grown in DMEM (Invitrogen) supplemented with 5% fetal bovine serum, 100 U/ml penicillin and 100 µg/ml streptomycin. […] The experiments were performed in a physiological saline solution containing (in mM) 140 NaCl, 5 KCl, 10 glucose, 10 HEPES, 2 CaCl2, and 1 MgCl2, buffered to pH 7.4 with NaOH. Compounds were applied to cells by local continuous microperfusion of solution through a fine tube placed in close proximity of the cells studied. […] Analyses of emission intensity ratios at 340 nm/380 nm excitation (R, in individual cells) were performed using the ImageMaster suite of software. […] Cells grown in 96 well black walled plates (Costar, Tewksbury, MA) were loaded with Fura 2-AM in the presence of 1 mM probenecid at 37°C for 1–1.5 hours and assays were carried out at 25°C. Basal emission ratios (340 nm/380 nm) were measured and changes in ratio determined at various times after compound addition.

[2] = tested on: Trpa1+/+ and Trpa1-/- mice; experiment: Intraplantar injection, pain-related behaviors; assay type: in vivo; details: intraplantar 250 nmoles/paw
Procedure: Data shown are from male and female homozygote Trpa1^− ^/− and Trpa1 ^+/+. The Trpa1-null mice and wild-type littermates were bred from heterozygotic mice provided by Drs. Kelvin Kwan and David Corey (Harvard Medical School, Boston, MA).
Methylglyoxal (250 nmoles in 25 µl saline) was injected subcutaneously into the plantar surface of one of the hind paws using a 50 µl luer-syringe (Hamilton Co.) fitted with a 26-gauge x 3/8 inch intradermal needle. Immediately after injection, mice were placed inside a Perspex chamber and the duration of the pain-related behaviors (licking and biting or flinching and shaking of the injected paw) recorded using a digital stop-watch. Total pain response times over the first 2 minutes were used for analysis as the pain behaviors were largely confined to this period. The glyoxalase 1 inhibitor Sr-p-Bromobenzylglutathione cyclopentyl diester (50 mg/kg) was dissolved in 2% DMSO/20% Tween 80 in saline and administered by intraperitoneal (i.p.) injection (5 ml/kg).

[3] = tested on: TRPA1; experiment: Outward TRPA1 currents in absence of Ca2+, effect of DTT; assay type: cell-based; details: MG 1 mM, +60 mV, Ca2+-free
Procedure: (§1) DRG neurons and TRPA1 CHO cells were studied under voltage-clamp conditions using an Axopatch 200B amplifier and pClamp 10.0 software (Molecular Devices, Sunnyvale, CA). Except where stated otherwise, whole cell recordings were performed at a holding potential of –60 mV using an extracellular solution with the composition described above for [Ca^2+]i measurements. Borosilicate glass pipettes (2–5 MΩ, 75–80% series resistance compensation) were filled with (in mM) 140 KCl, 1 CaCl2, 2 MgATP, 10 EGTA, and 10 HEPES buffered to pH 7.4 (KOH). Excised inside-out patches were recorded using a Ca^2+-free solution containing (in mM) 140 NaCl, 5 KCl, 1 MgCl2, 10 HEPES and 1 EGTA, pH 7.4 (NaOH) in the pipettes and perfused with 140 KCl, 2 MgATP, 1 EGTA, and 10 HEPES (pH 7.4). DRG neurons were studied using an intracellular solution containing (in mM) 140 CsCl, 1 CaCl2, 2 MgATP, 10 EGTA and 10 HEPES, pH 7.4 (CsOH). Drugs were applied by local microperfusion with a rapid solution changer (RSC-200, Biologic, Claix, France).
It is possible that MG stimulates TRPA1 through formation of reversible hemithioacetals with cysteine residues other than those examined here, [40]. To investigate this possibility we examined the effect of the reducing agent dithiothreitol (DTT, 2 mM) on outward TRPA1 currents recorded in the absence of Ca^2+ (5 mM BAPTA intracellularly, 1 mM EGTA extracellularly) to avoid Ca^2+-mediated inactivation or desensitization. We used DTT to determine whether disulfide bridge formation or reversible noncovalent interactions contribute to the agonist activity of MG. DTT is expected to rapidly reduce cystine bridges to free thiols, but also to form hemithioacetals with MG, thereby accelerating current decay. Covalent modification of arginine and lysine residues by MG and modification of cysteine residues by AITC are on the other hand resistant to DTT [31]. […] This is consistent with the expected oxidative formation of cystine bridges and their reduction by DTT [4]. The contrast between the stable currents produced by H2O2 and the spontaneously reversible currents evoked by MG highlights the reversible nature of the interaction between MG and TRPA1. […] We also observed that repeated applications of MG and H2O2 evoked reproducible current responses of similar amplitudes, whereas an application of AITC prevented subsequent channel activation by AITC challenges (Fig. 4C-E). We conclude that MG acts through a reversible interaction with TRPA1 and that H2O2 relies on DTT sensitive oxidative modification of TRPA1 protein for its activity. […] In contrast, the covalent modification produced by AITC appears irreversible and renders TRPA1 refractory to subsequent activation.

[4] = tested on: TRPA1; experiment: Excised inside-out patches, TRPA1 channel activity; assay type: cell-based; details: inside-out configuration, applied to intracellular face
Procedure: as §1

[5] = tested on: human TRPA1 C621S, C641S or C665S; experiment: [Ca2+]i-responses of human TRPA1 point mutants C621S, C641S, C665S; assay type: cell-based; details: human TRPA1 single point mutants vs wildtype
Procedure: Untransfected CHO cells and CHO cells expressing mouse or human TRPA1 were grown in MEM Glutamax or AQ medium supplemented with penicillin (100 U/ml), streptomycin (100 µg/ml), and FCS (10%). Plasmids encoding mutated TRPA1 channels were kindly provided by Dr. Ardem Patapoutian. All media, serum and antibiotics were from Invitrogen (Paisley, UK) or Sigma (Poole, UK).
Cells were loaded with 2 µM Fura-2 AM (Molecular Probes, Paisley, UK) in the presence of 1 mM probenecid for ∼1 hr. The experiments were performed in a physiological saline solution containing (in mM) 140 NaCl, 5 KCl, 10 glucose, 10 HEPES, 2 CaCl2, and 1 MgCl2, buffered to pH 7.4 with NaOH. Compounds were applied to cells by local continuous microperfusion of solution through a fine tube placed in close proximity of the cells studied. Images of a group of cells were captured every 2 sec using 340 and 380 nm excitation wavelengths with emission measured at 520 nm with a microscope based imaging system (PTI, New Jersey). […]
Changes in intracellular calcium ([Ca^2+]i) in response to agonists were determined in TRPA1 expressing CHO cells and MDCK cells using a Flexstation 3 (Molecular Devices). […] Basal emission ratios (340 nm/380 nm) were measured and changes in ratio determined at various times after compound addition.

EC50 [4]: 74 µM
SMILES: CC(=O)C=O [MG, methylglyoxal]
[Ca2+]i-influx response ([1]; 5 mM): evoked [Ca^2+]i-influx responses
EC50 ([1]; read-out: EC50, [Ca2+]i-responses): 2200 ± 400 µM
pain-related behaviors during 2 min after injection [2]: induced a significant nociceptive response
effect of DTT (2 mM) on agonist-evoked TRPA1 current [3]: dramatically accelerated the TRPA1 current decay
outward TRPA1 current after removal of agonist [3]: partially decayed with time after removal of MG
effect of substitutions C621S, C641S, C665S on potency of MG [5]: None of these amino acid substitutions affected the potency of MG significantly
